The values below come from patent publication US11202792B2, “CD99 inhibitors and their uses” (GEORGETOWN UNIVERSITY, priority 2016, dated 2021).

As usually defined, the IC50 is the midpoint of a concentration-inhibition curve.

Each structure is given as a SMILES string. A value given as a limit tells only on which side of the number the result lay.

In experiment [1] the test system is A673 ES cells. As to the kind of experiment: Cell viability IC50, A673. The note with it: Homo sapiens. The experiment is classed as cell-based. On the procedure:
(§1) The plate was installed into the RTCA system, and the electrical impedance (represented as cell index) was measured every 10 min.
(§2) To investigate the relationship between the level of CD99 expression and drug sensitivity, the endogenous expression of CD99 was determined in a panel of 9 ES and 13 non-ES cell lines. The recombinant purified CD99-ECD protein was used to generate standard curves for immunoquantification of CD99 expression by immunoblotting (FIGS. 6B and 6C).

The test system of experiment [2] is IOR/CAR ES cells. As to the kind of experiment: Cell viability IC50, IOR/CAR. The note with it: Homo sapiens. In kind it is cell-based. On the procedure: as §1, §2
The test system of experiment [3] is IOR/OS10 OS cells. As to the kind of experiment: Cell viability IC50, IOR/OS10. The experiment is classed as cell-based. The note with it: Homo sapiens. On the procedure:
as §1, §2

In experiment [4] the test system is U-2-OS OS cells. Description: Cell viability IC50, U-2-OS. The experiment is classed as cell-based. The note with it: Homo sapiens, U2OS. On the procedure:
as §1, §2

Experiment [5] concerns MG63 OS cells. As to the kind of experiment: Cell viability IC50, MG63. In kind it is cell-based. The note with it: Homo sapiens, MG-63. On the procedure: as §1, §2
Experiment [6] concerns RH30 rhabdomyosarcoma cells. As to the kind of experiment: Cell viability IC50, RH30. The note with it: Homo sapiens; RH30 (RM). In kind it is cell-based. On the procedure:
as §1, §2

Experiment [7] has as its target T1, interaction of CD99 with cyclophilin A and PKA-RIIα (Homo sapiens, UniProt P14209).
T1 construct: Endogenous CD99 was immunoprecipitated from RDES or STA-ET-7.2 ES cells; endogenous in cells; host or cells: RDES or STA-ET-7.2
As to the kind of experiment: Co-immunoprecipitation of CD99 with cyclophilin A and PKA-RIIα. In kind it is cell-based. The note with it: 3 μmol/L, 6 h; RDES or STA-ET-7.2 cells. On the procedure: In FIG. 7A, STA-ET-7.2 ES cells were incubated with either drug at 5 μmol/L concentration or DMSO for 1 h. The cells were treated with cross-linking agent BS^3 as described in the Examples. The lysates were resolved in 12% SDS-PAGE followed by immunoblotting with anti-actin and anti-CD99 clone 013 antibodies. M and D represent monomeric and dimeric forms of CD99, respectively. Values given below the lanes on the immunoblot represent the relative density of the bands, and were determined using ImageJ 1.48v software. In FIG. 7B, RDES or STA-ET-7.2 ES cells were treated with 3 μmol/L of either drug for 6 h. Endogenous CD99 was immunoprecipitated from total cell lysates using either anti-CD99 clone 12E7 antibody or anti-CD99 clone 013 antibody. Immunoblot (IB) analysis was performed for cyclophilin A, CD99 and PKA-RIIα using both cell lysates (TCL) and immunoprecipitated (IP) samples. Values given below the lanes on each immunoblot represent the relative density of the bands, and were determined using ImageJ 1.48v software. In FIG. 7C, SAOS-2 and U-2 OS cells were transiently transfected with an empty mammalian expression vector (EV) or an expression construct containing a cDNA encoding full length human CD99. The growth rate of cells was monitored by electrical impedance in real time. […]

Experiment [8] has as its system SKES xenografts. Description: Orthotopic SKES xenograft, i.p. administration. The note with it: for tumor growth: i.p. The experiment is classed as in vivo, SCID/beige mice. On the procedure: All tumor tissues were fixed in 10% neutral buffered formalin for 24 h, dehydrated through a graded series of alcohols and cleared in xylenes prior to embedding in paraffin. Embedded tissues were cut into 5 μm thick sections and stained with hematoxylin and eosin (H&E). Immunohistochemical staining was performed for CD99 and caspase 3 (cleaved). Five micron sections from formalin fixed paraffin embedded tissues were de-paraffinized with xylenes and rehydrated through a graded alcohol series. Heat induced epitope retrieval was performed by immersing the tissue sections at 98° C. for 60 min in 10 mmol/L citrate buffer (pH 6.0). Immunohistochemical staining was performed using a horseradish peroxidase labeled polymer from Agilent (Santa Clara, Calif.) (#K4001, #K4003) according to manufacturer's instructions. Briefly, slides were treated with 3% hydrogen peroxide and 10% normal goat serum for 10 min each, and exposed to primary antibodies for CD99 (Abcam, #ab8855) at a 1:100 dilution and for caspase 3 (cleaved) (Biocare (Pacheco, Calif.), #CP229A) at a 1:90 dilution in Da Vinci Green for one hour and stained on an DAKO Autostainer. Slides were exposed to the appropriate HRP labeled polymer for 30 min and DAB chromogen (Dako (Santa Clara, Calif.) for 5 min. Slides were counterstained with Hematoxylin (Fisher, Harris Modified Hematoxylin), blued in 1% ammonium hydroxide, dehydrated, and mounted with Acrymount. Consecutive sections with the primary antibody omitted were used as negative controls. The sections were evaluated in a blinded fashion by a board certified pathologist.
The antitumor activity of drugs through intraperitoneal (i.p.) administration given once daily was determined. […] The in vivo potencies of drug treatments were evaluated by event-free survival curves, where tumors that reached 1.0 cm^3 in size considered an event.

T1 sequence (P14209 23-185): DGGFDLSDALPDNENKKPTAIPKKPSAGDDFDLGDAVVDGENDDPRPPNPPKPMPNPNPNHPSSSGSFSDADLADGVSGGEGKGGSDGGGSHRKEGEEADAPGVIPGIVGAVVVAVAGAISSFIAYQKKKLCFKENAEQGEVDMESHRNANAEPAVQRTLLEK

For `Nc1nc(Cl)nc2c1ncn2[C@H]1C[C@H](O)[C@@H](CO)O1` [cladribine], the 50% inhibitory concentration (IC50) is 7.42 µM in experiment [1]; 0.66 µM in experiment [2]; 11.4 µM in experiment [3]; over 30 µM in experiment [4]; over 30 µM in experiment [5]; 3.26 µM in experiment [6]. Besides, the “amount of coprecipitated cyclophilin A and PKA-RIIα” value in experiment [7] is on record as “decreased significantly”. Further, the tumor growth result in experiment [8] (20 mg/kg both) is “less effective”.

On to `Nc1nc(Cl)nc2c1ncn2[C@@H]1O[C@H](CO)[C@@H](O)[C@@H]1F` [clofarabine], for which the IC50 in experiment [1] is 1.9 µM; in experiment [2], 0.29 µM; in experiment [3], 1.37 µM; in experiment [4], over 30 µM; in experiment [5] it was over 10 µM; in experiment [6], over 10 µM. Also, in experiment [7], the “amount of coprecipitated cyclophilin A and PKA-RIIα” value was “decreased significantly”. The “mitotic figures per field” value in experiment [8] (H&E, 200-fold magnification) is on record as at most 3. Also, the apoptotic cells entry in experiment [8] (H&E, confirmed by caspase-3 immunohistochemistry) is given as “significant increase”. Besides, the event-free survival entry in experiment [8] (i.p. once daily, 20 mg/kg both, vs vehicle) is listed as “significantly improved”. The tumor growth result in experiment [8] (20 mg/kg both) was “significant inhibition of tumor growth”.
